Each block holds one molecule with its values, some of them ahead of it.
What was measured:
[1] = system: HT-29; experiment: Cytotoxicity against human HT29 cells after 72 hrs; assay type: functional; details: HT-29, 72 h
[2] = Ratio of Kapp for synthetic poly(dA-dT)]2 oligonucleotide to Kapp for synthetic poly(dG-dC)]2 oligonucleotide
[3] = system: HT-29; experiment: Effect on apoptosis in human HT29 PI-/AnnV- cells after 6 hrs by biparametric flow cytometric analysis; assay type: functional; details: HT-29, 6 h, read-out: LC50 (the source's name)
[4] = system: HT-29; experiment: Effect on apoptosis in human HT29 PI+/AnnV- cells after 6 hrs by biparametric flow cytometric analysis; assay type: functional; details: HT-29, 6 h, read-out: LC50 (the source's name)
[5] = system: HT-29; experiment: Effect on apoptosis in human HT29 PI-/AnnV+ cells after 6 hrs by biparametric flow cytometric analysis; assay type: functional; details: HT-29, 6 h, read-out: LC50 (the source's name)
[6] = system: HT-29; experiment: Effect on apoptosis in human HT29 PI+/AnnV+ cells after 6 hrs by biparametric flow cytometric analysis; assay type: functional; details: HT-29, 6 h, read-out: LC50 (the source's name)
[7] = system: HT-29; experiment: Effect on apoptosis in human HT29 PI-/AnnV- cells after 12 hrs by biparametric flow cytometric analysis; assay type: functional; details: HT-29, 12 h, read-out: LC50 (the source's name)
[8] = system: HT-29; experiment: Effect on apoptosis in human HT29 PI+/AnnV- cells after 12 hrs by biparametric flow cytometric analysis; assay type: functional; details: HT-29, 12 h, read-out: LC50 (the source's name)
[9] = system: HT-29; experiment: Effect on apoptosis in human HT29 PI-/AnnV+ cells after 12 hrs by biparametric flow cytometric analysis; assay type: functional; details: HT-29, 12 h, read-out: LC50 (the source's name)
[10] = system: HT-29; experiment: Effect on apoptosis in human HT29 PI+/AnnV+ cells after 12 hrs by biparametric flow cytometric analysis; assay type: functional; details: HT-29, 12 h, read-out: LC50 (the source's name)
[11] = system: HT-29; experiment: Effect on apoptosis in human HT29 PI-/AnnV- cells after 24 hrs by biparametric flow cytometric analysis; assay type: functional; details: HT-29, 24 h, read-out: LC50 (the source's name)
[12] = system: HT-29; experiment: Effect on apoptosis in human HT29 PI+/AnnV- cells after 24 hrs by biparametric flow cytometric analysis; assay type: functional; details: HT-29, 24 h, read-out: LC50 (the source's name)
[13] = system: HT-29; experiment: Effect on apoptosis in human HT29 PI-/AnnV+ cells after 24 hrs by biparametric flow cytometric analysis; assay type: functional; details: HT-29, 24 h, read-out: LC50 (the source's name)
[14] = system: HT-29; experiment: Effect on apoptosis in human HT29 PI+/AnnV+ cells after 24 hrs by biparametric flow cytometric analysis; assay type: functional; details: HT-29, 24 h, read-out: LC50 (the source's name)

SMILES: CN(C)CCCn1nc2c3c(c(NCCCN(C)CCCNc4ccc5c6c(nn5CCCN(C)C)-c5ccncc5C(=O)c46)ccc31)C(=O)c1cnccc1-2
GI50 [1]: 40 µM
LC50 (concentration killing 50% of cells) [1]: > 100 µM
TGI [1]: > 100 µM

SMILES: CCN(CC)CCn1nc2c3c(c(NCCCN(C)CCCNc4ccc5c6c(nn5CCN(CC)CC)-c5cnccc5C(=O)c46)ccc31)C(=O)c1ccncc1-2
GI50 [1]: 0.001 µM
LC50 (concentration killing 50% of cells) [1]: 97 µM
TGI [1]: 4.5 µM

Ratio [2]: 1.9
SMILES: CN(C)CCCNc1ccc(NCCCN(C)CCCNc2ccc(NCCCN(C)C)c3c2C(=O)c2ccncc2C3=O)c2c1C(=O)c1cnccc1C2=O
GI50 [1]: > 100 µM

Ratio [2]: 7.7
SMILES: CN(C)CCNc1ccc(NCCCN(C)CCCNc2ccc(NCCN(C)C)c3c2C(=O)c2ccncc2C3=O)c2c1C(=O)c1cnccc1C2=O
GI50 [1]: > 100 µM

SMILES: CCN(CC)CCn1nc2c3c(c(NCCCN(C)CCCNc4ccc5c6c(nn5CCN(CC)CC)-c5ccncc5C(=O)c46)ccc31)C(=O)c1cnccc1-2
GI50 [1]: 0.4 µM
LC50 (concentration killing 50% of cells) [1]: > 100 µM
TGI [1]: > 100 µM

Ratio [2]: 5
SMILES: CCN(CC)CCNc1ccc(NCCCN(C)CCCNc2ccc(NCCN(CC)CC)c3c2C(=O)c2ccncc2C3=O)c2c1C(=O)c1cnccc1C2=O
GI50 [1]: > 100 µM

SMILES: CN(C)CCCn1nc2c3c(c(NCCCN(C)CCCNc4ccc5c6c(nn5CCCN(C)C)-c5cnccc5C(=O)c46)ccc31)C(=O)c1ccncc1-2
GI50 [1]: 1.6 µM
LC50 (concentration killing 50% of cells) [1]: > 100 µM
TGI [1]: > 100 µM

SMILES: CCN(CC)CCNc1ccc(NCCCN(C)CCCNc2ccc(NCCN(CC)CC)c3c2C(=O)c2cnccc2C3=O)c2c1C(=O)c1ccncc1C2=O
Ratio [2]: 3.5
GI50 [1]: 4.5 µM
LC50 (concentration killing 50% of cells) [1]: > 100 µM
TGI [1]: 32 µM

SMILES: CCN(CC)CCCNc1ccc(NCCCN(C)CCCNc2ccc(NCCCN(CC)CC)c3c2C(=O)c2cnccc2C3=O)c2c1C(=O)c1ccncc1C2=O
Ratio [2]: 1.7
GI50 [1]: 83 µM
LC50 (concentration killing 50% of cells) [1]: > 100 µM
TGI [1]: > 100 µM

SMILES: CN(CCCNc1ccc(NCCN2CCCC2)c2c1C(=O)c1cnccc1C2=O)CCCNc1ccc(NCCN2CCCC2)c2c1C(=O)c1cnccc1C2=O
Ratio [2]: 2.4
GI50 [1]: 0.5 µM
LC50 (concentration killing 50% of cells) [1]: > 100 µM
TGI [1]: 7.9 µM

SMILES: CN(C)CCCNc1ccc(NCCCN(C)CCCNc2ccc(NCCCN(C)C)c3c2C(=O)c2cnccc2C3=O)c2c1C(=O)c1ccncc1C2=O
Ratio [2]: 2.4
GI50 [1]: 2 µM
LC50 (concentration killing 50% of cells) [1]: > 100 µM
TGI [1]: 7.9 µM

SMILES: CN(C)CCn1nc2c3c(c(NCCCN(C)CCCNc4ccc5c6c(nn5CCN(C)C)-c5ccncc5C(=O)c46)ccc31)C(=O)c1cnccc1-2
GI50 [1]: 0.7 µM
LC50 (concentration killing 50% of cells) [1]: > 100 µM
TGI [1]: > 100 µM

SMILES: NCCNc1ccc(NCCN)c2c1C(=O)c1ccncc1C2=O [PIXANTRONE]
GI50 [1]: 0.0012 µM
TGI [1]: 3.2 µM
CC50 [3]: 60.4 µM
CC50 [4]: 4.8 µM
CC50 [5]: 32.5 µM
CC50 [6]: 2.3 µM
CC50 [7]: 50.4 µM
CC50 [8]: 5.1 µM
CC50 [9]: 38.4 µM
CC50 [10]: 6.1 µM
CC50 [11]: 41.6 µM
CC50 [12]: 11.2 µM
CC50 [13]: 41 µM
CC50 [14]: 6.2 µM

— ChEMBL document CHEMBL1141566, “Synthesis and antitumor evaluation of bis aza-anthracene-9,10-diones and bis aza-anthrapyrazole-6-ones” (2008)
